Where two headings read alike, the source gives them in different places.
What was measured:
[1] = target: T1, human 11β-HSD1 (Homo sapiens, UniProt P28845); test: Human 11β-HSD1 enzyme inhibitory activity (lysate of stably expressing HEK293 cells, cortisol by competitive ELISA); assay type: biochemical
T1 construct: expressed in transfected cells; sonicated cell suspension used as lysate
Procedure: (§1) Human 11β-HSD1-, human 11β-HSD2-Gene Clonings and Establishment of Stably Expressing Cells
(§2) Human 11β-HSD1- and human 11β-HSD2-gene clonings were conducted using as a template a reverse transcription product of human-liver RNA and human-kidney RNA (CELL APPLICATIONS) respectively, by means of PCR cloning with reference to nucleotide sequences of Genbank Accession No. NM_00.5525 and NM 000196. The obtained PCR products of about 0.9 kbp and 1.2 kbp were subcloned into an expression vector pcDNA3.1+/Zeo (Invitrogen).
(§3) Human 11β-HSD1- and human 11β-HSD2-expressing vectors were transfected into human kidney-derived cell line, HEK293 cells, using a transfection reagent, jet PEI (Funakoshi). Selection was conducted with 400 μg/mL of zeocine (Invitrogen) to provide stably-expressing-cell clones. The stably expressing cells were suspended in buffer solution A (20 mmol/L Tris-HCl, pH 7.4, 250 mmol/L sucrose, 1 mmol/L EGTA, 1 mmol/L EDTA, 1 mmol/L MgCl2), sonicated, and then stored at −80° C.
(§4) An enzymatic reaction was conducted using a polystyrene 96-well plate. Each well was added with 1 μL of a test agent dissolved in DMSO and then diluted (0.003 to 3 mmol/L), and further added with 10 μL of cell lysate diluted to a concentration of 0.1 mg/mL to 0.4 mg/mL. Next, 90 μL of buffer solution A containing substrate (100 nmol/L cortisone) and coenzyme (400 μmol/L NADPH) was added and the mixture was incubated at 37° C. for 1 hour. The enzymatic reaction was stopped by treating at 95° C. for 3 minutes. Cortisol that was present in the reaction solution was determined by a competitive ELISA shown below.
Anti-rabbit IgG antibody (Chemi-con) diluted to 2 μg/mL with carbonate buffer solution (pH 9.6) was added in 100 μL each to a 96-well immuno plate (Nunc) and immobilized by incubating at 4° C. overnight. 50 μL of enzymatic reaction solution was put onto the plates, and further, anti-cortisol antibody (Cosmo Bio) and HRP-labeled cortisol (Cosmo Bio), diluted with buffer solution B (25 mmol/L Tris-HCl pH 7.4, 137 mmol/L NaCl, 2.68 mmol/L KCl), were added in 50 μL respectively and incubated at 4° C. overnight. After washed three times with buffer solution B containing 0.05% Tween 20, the plates were allowed to develop color by adding 100 μL of color reagent, TMB (Moss). The color reaction was stopped by 25 μL of 1 mol/L sulfuric acid and the absorbance was determined at 450 nm with a microplate reader (Molecular Device, VersaMax).
The values of human 11β-HSD1 and human 11β-HSD2 activities were subtracted from 100, and the resultant values were regarded as the respective 11β-HSD inhibition rates of example compounds. For each example compound, the value of 50% inhibitory concentration (IC50) was calculated from 11β-HSD inhibition rates at plural concentrations, for 11β-HSD1 and 11β-HSD2 activities.

[2] = target: T2, human 11β-HSD2 (Homo sapiens, UniProt P80365); test: Human 11β-HSD2 enzyme inhibitory activity (lysate of stably expressing HEK293 cells, cortisol by competitive ELISA); assay type: biochemical; conditions: human 11β-HSD2, HEK293 cell lysate, 37° C. 1 hour
T2 construct: expressed in transfected cells; sonicated cell suspension used as lysate
T2 sequence (P80365 1-405): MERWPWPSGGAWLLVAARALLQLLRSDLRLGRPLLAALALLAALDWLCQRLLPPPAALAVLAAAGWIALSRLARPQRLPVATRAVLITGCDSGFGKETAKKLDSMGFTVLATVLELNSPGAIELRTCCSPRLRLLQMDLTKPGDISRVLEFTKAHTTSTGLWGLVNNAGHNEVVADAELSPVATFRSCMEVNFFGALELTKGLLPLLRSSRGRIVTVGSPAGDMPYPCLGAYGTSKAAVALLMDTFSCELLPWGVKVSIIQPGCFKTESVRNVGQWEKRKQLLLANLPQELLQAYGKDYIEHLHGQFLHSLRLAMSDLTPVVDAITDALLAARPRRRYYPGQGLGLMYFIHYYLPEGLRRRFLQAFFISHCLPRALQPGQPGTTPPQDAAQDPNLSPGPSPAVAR
Procedure: as §1, §2, §3, §4
Anti-rabbit IgG antibody (Chemi-con) diluted to 2 μg/mL with carbonate buffer solution (pH 9.6) was added in 100 μL each to a 96-well immuno plate (Nunc) and immobilized by incubating at 4° C. overnight. […] The color reaction was stopped by 25 μL of 1 mol/L sulfuric acid and the absorbance was determined at 450 nm with a microplate reader (Molecular Device, VersaMax). […]

[3] = human 11β-HSD1, HEK293 cell lysate, 100 nmol/L cortisone, 400 μmol/L NADPH, 37° C. 1 hour, read-out: IC50(μM) HSD1

T1 sequence (P28845 whole entry): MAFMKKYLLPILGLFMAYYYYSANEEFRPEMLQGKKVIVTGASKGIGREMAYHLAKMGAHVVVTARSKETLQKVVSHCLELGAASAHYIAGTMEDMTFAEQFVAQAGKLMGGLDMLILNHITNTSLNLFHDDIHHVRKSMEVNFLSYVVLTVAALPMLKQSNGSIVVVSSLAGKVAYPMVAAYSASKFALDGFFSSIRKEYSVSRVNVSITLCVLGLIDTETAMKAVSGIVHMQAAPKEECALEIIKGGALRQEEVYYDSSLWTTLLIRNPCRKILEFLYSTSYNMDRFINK

## CN1C(=O)C2(CCN(C(=O)COc3ccccc3C(F)(F)F)CC2)c2ccccc21 [Example 76, 1-methyl-1′-{2-(2-trifluoromethylphenoxy)acetyl}spiro(indole-3,4′-piperidine)-2-one]
[1]; [3]
  IC50: 0.068 µM
[2]
  IC50: > 30 µM

## O=C(COc1ccccc1C(F)(F)F)N1CCC2(CC1)C(=O)Nc1ccccc12 [Example 1, 1′-{2-(2-trifluoromethylphenoxy)acetyl}spiro(indole-3,4′-piperidine)-2(1H)-one]
[1]; [3]
  IC50: 0.033 µM

## O=C(COc1ccccc1I)N1CCC2(CC1)C(=O)Nc1ccccc12 [Example 10, 1′-{2-(2-iodophenoxy)acetyl}spiro(indole-3,4′-piperdine)-2 (1H)-one]
[1]; [3]
  IC50: 0.087 µM
[2]
  IC50: > 30 µM

## O=C(COc1ccccc1[N+](=O)[O-])N1CCC2(CC1)C(=O)Nc1ccccc12 [Example 12, 1′-{2-(2-nitrophenoxy)acetyl}spiro(indole-3,4′-piperidine)-2(1H)-one]
[1]; [3]
  IC50: 1 µM

## O=C(N1CCC2(CC1)C(=O)Nc1ccccc12)C1(c2ccc(Cl)cc2)CC1 [compound A, 1′-{[1-(4-Chlorophenyl)cyclopropyl]carbonyl}spiro[indole-3, 4′-piperidin]-2(1H)-one, reference compound]
[1]; compound A actually synthesized and measured by the applicant, read-out: 50% inhibitory concentration (IC50) for 11β-HSD1 activity
  IC50: 3 µM

## O=C(CSc1ccccc1C(F)(F)F)N1CCC2(CC1)C(=O)Nc1ccccc12 [Example 70, 1′-{2-(2-trifluoromethylphenylthio)acetyl}spiro(indole-3,4′-piperidine)-2(1H)-one]
[1]; [3]
  IC50: 0.16 µM

## CC(C)(C)c1ccccc1OCC(=O)N1CCC2(CC1)C(=O)Nc1ccccc12 [Example 52, 1′-{2-(2-t-butylphenoxy)acetyl}spiro(indole-3,4′-piperidine)-2(1H)-one]
[1]; [3]
  IC50: 0.73 µM

## CCN1C(=O)C2(CCN(C(=O)COc3ccccc3C(F)(F)F)CC2)c2ccccc21 [Example 80, 1-ethyl-1′-{2-(2-trifluoromethylphenoxy)acetyl}spiro(indole-3,4′-piperidine)-2-one]
[1]; [3]
  IC50: 0.67 µM

## O=C(COc1ccccc1Br)N1CCC2(CC1)C(=O)Nc1ccccc12 [Example 49]
[1]; [3]
  IC50: 0.41 µM
[2]
  IC50: > 30 µM

## CCCN1C(=O)C2(CCN(C(=O)COc3ccccc3C(F)(F)F)CC2)c2ccccc21 [Example 81, 1-propyl-1′-{2-(2-trifluoromethylphenoxy)acetyl}spiro(indole-3,4′-piperidine)-2-one]
[1]; [3]
  IC50: 0.43 µM

## Cc1ccccc1OCC(=O)N1CCC2(CC1)C(=O)Nc1ccccc12 [Example 2, 1′-{2-(2-methylphenoxy)acetyl}spiro(indole-3,4′-piperidine)-2(1H)-one]
[1]; [3]
  IC50: 0.82 µM

## O=C(COc1cccc(Cl)c1Cl)N1CCC2(CC1)C(=O)Nc1ccccc12 [Example 40, 1′-{2-(2,3-dichlorophenoxy)acetyl}spiro(indole-3,4′-piperidine)-2(1H)-one]
[1]; [3]
  IC50: 0.96 µM

## O=C(COc1ccccc1C(F)(F)F)N1CCC2(CC1)C(=O)N(C1CC1)c1ccccc12 [Example 84, 1-cyclopropyl-1′-{2-(2-trifluoromethylphenoxy)acetyl}spiro(indole-3,4′-piperidine)-2-one]
[1]; [3]
  IC50: 0.72 µM

Source: patent US20080306102A1, “NOVEL SPIROOXYINDOLE COMPOUNDS AND DRUGS CONTAINING SAME” (KOWA CO., LTD., priority 2007, published 2008)
